PubChem BioAssay (NCI)
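These data come from cells grown in 96-well plates and exposed to compound for 48 hours at five concentrations. The concentration for full growth arrest is given as TGI.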

Tests used:
Assay in all cases: growth of human tumour cells (NCI), 48 h
786-0 renal = tested on: 786-0 renal
MOLT-4 leukemia = tested on: MOLT-4 leukemia
OVCAR-4 ovarian = tested on: OVCAR-4 ovarian
DU-145 prostate = tested on: DU-145 prostate
A549 NSCLC = tested on: A549 NSCLC
NCI-H226 lung = tested on: NCI-H226 lung
MALME-3M melanoma = tested on: MALME-3M melanoma
NCI-H522 lung = tested on: NCI-H522 lung
HOP-62 NSCLC = tested on: HOP-62 NSCLC
SW-620 colon = tested on: SW-620 colon
MDA-N = tested on: MDA-N
M14 melanoma = tested on: M14 melanoma
MCF7 breast = tested on: MCF7 breast
SF-268 CNS = tested on: SF-268 CNS
HCC-2998 colon = tested on: HCC-2998 colon
UO-31 renal = tested on: UO-31 renal
OVCAR-3 ovarian = tested on: OVCAR-3 ovarian
HL-60(TB) leukemia = tested on: HL-60(TB) leukemia
ACHN renal = tested on: ACHN renal
PC-3 prostate = tested on: PC-3 prostate
TK-10 renal = tested on: TK-10 renal
A498 renal = tested on: A498 renal
NCI-H23 lung = tested on: NCI-H23 lung
SNB-75 CNS = tested on: SNB-75 CNS
HT29 colon = tested on: HT29 colon
KM12 colon = tested on: KM12 colon
NCI-H460 lung = tested on: NCI-H460 lung
LOX IMVI melanoma = tested on: LOX IMVI melanoma
BT-549 breast = tested on: BT-549 breast
SN12C renal = tested on: SN12C renal
HCT-15 colon = tested on: HCT-15 colon
T-47D breast = tested on: T-47D breast
EKVX NSCLC = tested on: EKVX NSCLC
SF-295 CNS = tested on: SF-295 CNS
SK-MEL-28 melanoma = tested on: SK-MEL-28 melanoma
SF-539 CNS = tested on: SF-539 CNS
MDA-MB-231 breast = tested on: MDA-MB-231 breast
SK-MEL-5 melanoma = tested on: SK-MEL-5 melanoma
CAKI-1 renal = tested on: CAKI-1 renal
K-562 leukemia = tested on: K-562 leukemia
HCT-116 colon = tested on: HCT-116 colon
CCRF-CEM leukemia = tested on: CCRF-CEM leukemia
HS 578T breast = tested on: HS 578T breast
OVCAR-8 ovarian = tested on: OVCAR-8 ovarian
SNB-19 CNS = tested on: SNB-19 CNS
UACC-257 melanoma = tested on: UACC-257 melanoma
U251 CNS = tested on: U251 CNS
IGROV1 ovarian = tested on: IGROV1 ovarian
OVCAR-5 ovarian = tested on: OVCAR-5 ovarian
RXF 393 renal = tested on: RXF 393 renal
SR leukemia = tested on: SR leukemia
RPMI-8226 leukemia = tested on: RPMI-8226 leukemia
COLO 205 colon = tested on: COLO 205 colon
HOP-92 NSCLC = tested on: HOP-92 NSCLC
UACC-62 melanoma = tested on: UACC-62 melanoma
MDA-MB-435 = tested on: MDA-MB-435
SK-MEL-2 melanoma = tested on: SK-MEL-2 melanoma

O=C(c1cc(Cl)ccc1Cl)N1CCN(c2cccc(Cl)c2)CC1
TGI (786-0 renal): 34 µM | TGI (MOLT-4 leukemia): 37 µM | TGI (OVCAR-4 ovarian): > 100 µM | TGI (DU-145 prostate): > 100 µM | TGI (A549 NSCLC): 42.6 µM | TGI (NCI-H226 lung): 42.6 µM | TGI (MALME-3M melanoma): 28.6 µM | TGI (NCI-H522 lung): 30.4 µM | TGI (HOP-62 NSCLC): 61.5 µM | TGI (SW-620 colon): 94.8 µM | TGI (MDA-N): 5.62 µM | TGI (M14 melanoma): > 100 µM | TGI (MCF7 breast): > 100 µM | TGI (SF-268 CNS): > 100 µM | TGI (HCC-2998 colon): 39.5 µM | TGI (UO-31 renal): 58.9 µM | TGI (OVCAR-3 ovarian): 38 µM | TGI (HL-60(TB) leukemia): > 100 µM | TGI (ACHN renal): 76.5 µM | TGI (PC-3 prostate): 6.22 µM | TGI (TK-10 renal): > 100 µM | TGI (A498 renal): 34.8 µM | TGI (NCI-H23 lung): > 100 µM | TGI (SNB-75 CNS): > 100 µM | TGI (HT29 colon): 27.1 µM | TGI (KM12 colon): 20 µM | TGI (NCI-H460 lung): 31.5 µM | TGI (LOX IMVI melanoma): 25.5 µM | TGI (BT-549 breast): 23.1 µM | TGI (SN12C renal): 20.2 µM | TGI (HCT-15 colon): > 100 µM | TGI (T-47D breast): > 100 µM | TGI (EKVX NSCLC): 96.5 µM | TGI (SF-295 CNS): 25.6 µM | TGI (SK-MEL-28 melanoma): 81.9 µM | TGI (SF-539 CNS): 31.4 µM | TGI (MDA-MB-231 breast): 20.3 µM | TGI (SK-MEL-5 melanoma): 19.3 µM | TGI (CAKI-1 renal): > 100 µM | TGI (K-562 leukemia): 16.2 µM | TGI (HCT-116 colon): 24.1 µM | TGI (CCRF-CEM leukemia): 59.7 µM | TGI (HS 578T breast): 65.8 µM | TGI (OVCAR-8 ovarian): 38.9 µM | TGI (SNB-19 CNS): > 100 µM | TGI (UACC-257 melanoma): 50.3 µM | TGI (U251 CNS): 62 µM | TGI (IGROV1 ovarian): 56.8 µM | TGI (OVCAR-5 ovarian): > 100 µM | TGI (RXF 393 renal): 27.5 µM | TGI (SR leukemia): > 100 µM | TGI (RPMI-8226 leukemia): > 100 µM

CN1CCN(C(=S)N(C(=O)c2cccs2)C2CCCCC2)CC1
TGI (786-0 renal): > 100 µM | TGI (MOLT-4 leukemia): > 10 µM | TGI (OVCAR-4 ovarian): > 100 µM | TGI (DU-145 prostate): > 100 µM | TGI (A549 NSCLC): > 100 µM | TGI (NCI-H226 lung): > 100 µM | TGI (MALME-3M melanoma): > 100 µM | TGI (NCI-H522 lung): > 100 µM | TGI (COLO 205 colon): > 100 µM | TGI (SW-620 colon): > 100 µM | TGI (MDA-N): > 100 µM | TGI (M14 melanoma): > 100 µM | TGI (MCF7 breast): > 100 µM | TGI (SF-268 CNS): > 100 µM | TGI (HCC-2998 colon): > 100 µM | TGI (HOP-92 NSCLC): > 100 µM | TGI (UO-31 renal): > 100 µM | TGI (OVCAR-3 ovarian): > 100 µM | TGI (HL-60(TB) leukemia): 54.2 µM | TGI (ACHN renal): > 100 µM | TGI (TK-10 renal): > 100 µM | TGI (NCI-H23 lung): > 100 µM | TGI (SNB-75 CNS): > 100 µM | TGI (HT29 colon): > 100 µM | TGI (KM12 colon): > 100 µM | TGI (NCI-H460 lung): > 100 µM | TGI (LOX IMVI melanoma): > 100 µM | TGI (BT-549 breast): > 100 µM | TGI (SN12C renal): > 100 µM | TGI (HCT-15 colon): > 100 µM | TGI (T-47D breast): > 100 µM | TGI (SF-295 CNS): > 10 µM | TGI (UACC-62 melanoma): > 100 µM | TGI (SK-MEL-28 melanoma): > 100 µM | TGI (MDA-MB-231 breast): > 100 µM | TGI (SK-MEL-5 melanoma): > 100 µM | TGI (MDA-MB-435): > 100 µM | TGI (K-562 leukemia): > 100 µM | TGI (CCRF-CEM leukemia): > 10 µM | TGI (HS 578T breast): > 100 µM | TGI (OVCAR-8 ovarian): > 100 µM | TGI (SNB-19 CNS): > 100 µM | TGI (UACC-257 melanoma): > 100 µM | TGI (U251 CNS): > 100 µM | TGI (IGROV1 ovarian): > 100 µM | TGI (OVCAR-5 ovarian): > 100 µM | TGI (RXF 393 renal): > 100 µM | TGI (SR leukemia): > 100 µM | TGI (SK-MEL-2 melanoma): > 100 µM | TGI (RPMI-8226 leukemia): > 100 µM

CCOC(=O)C1(C)CCc2sc(N)c(C#N)c21 (stereo not drawn)
TGI (786-0 renal): > 100 µM | TGI (MOLT-4 leukemia): > 100 µM | TGI (A549 NSCLC): > 100 µM | TGI (NCI-H226 lung): > 100 µM | TGI (MALME-3M melanoma): > 100 µM | TGI (COLO 205 colon): > 100 µM | TGI (HOP-62 NSCLC): > 100 µM | TGI (SW-620 colon): > 100 µM | TGI (MDA-N): > 100 µM | TGI (M14 melanoma): > 100 µM | TGI (MCF7 breast): > 100 µM | TGI (HCC-2998 colon): > 100 µM | TGI (HOP-92 NSCLC): > 100 µM | TGI (UO-31 renal): > 100 µM | TGI (HL-60(TB) leukemia): > 100 µM | TGI (ACHN renal): > 100 µM | TGI (PC-3 prostate): > 100 µM | TGI (TK-10 renal): > 100 µM | TGI (A498 renal): > 100 µM | TGI (NCI-H23 lung): > 100 µM | TGI (SNB-75 CNS): > 100 µM | TGI (HT29 colon): > 100 µM | TGI (KM12 colon): > 100 µM | TGI (NCI-H460 lung): > 100 µM | TGI (BT-549 breast): > 100 µM | TGI (SN12C renal): > 100 µM | TGI (HCT-15 colon): > 100 µM | TGI (T-47D breast): > 100 µM | TGI (EKVX NSCLC): > 100 µM | TGI (UACC-62 melanoma): > 100 µM | TGI (SK-MEL-28 melanoma): > 100 µM | TGI (MDA-MB-231 breast): > 100 µM | TGI (SK-MEL-5 melanoma): > 100 µM | TGI (K-562 leukemia): > 100 µM | TGI (HCT-116 colon): > 100 µM | TGI (CCRF-CEM leukemia): > 100 µM | TGI (HS 578T breast): > 100 µM | TGI (OVCAR-8 ovarian): > 100 µM | TGI (SNB-19 CNS): > 100 µM | TGI (UACC-257 melanoma): > 100 µM | TGI (U251 CNS): > 100 µM | TGI (IGROV1 ovarian): > 100 µM | TGI (OVCAR-5 ovarian): > 100 µM | TGI (RXF 393 renal): > 100 µM | TGI (SK-MEL-2 melanoma): > 100 µM | TGI (RPMI-8226 leukemia): > 100 µM
